Experimental findings from ChEMBL document CHEMBL1151062, “Synthesis and biological activity of 3-alkyl- and 3-alkenyl-3-dephenyldocetaxels” (Bioorg Med Chem Lett, 1994) are described below.

The test system of experiment [1] is P388. As to the kind of experiment: In vitro cytotoxicity against murine P388 cell lines. The experiment is classed as functional, cell-based. To be noted: Mus musculus.
Experiment [2] concerns P388. The experiment is described as follows: Microtubule disassembly inhibitory activity against murine P388 cell line relative to the activity of paclitaxel. The experiment is classed as functional, Mus musculus.
Experiment [3] deals with P388. The experiment is described as follows: In vitro cytotoxicity against doxorubicin resistant P388 cell lines. The experiment is classed as functional, cell-based. The note with it: Mus musculus.
The species entered for experiment [4] is Mus musculus. As to the kind of experiment: Cell kill against B16 melanoma cell lines at a concentration of 0.4 mL per mouse on days 5,7,9 in B6D2F1 mice. It counts as functional.
For experiment [5], the species on record is Mus musculus. The experiment is described as follows: Time for median tumor to reach 1000 mg was determined against B16 melanoma cell lines at a concentration of 0.4 mL per mouse on days 5,7,9 in B6D2F1 mice. The experiment is classed as functional.
Experiment [6] concerns Mus musculus. The experiment is described as follows: In vivo antitumor activity administered iv, at a concentration of 12.4 mg/kg/day per mouse was determined against B16 melanoma cell lines on days 5,7,9 in B6D2F1 mice. The experiment is classed as functional.
Experiment [7] relates to Mus musculus. The experiment is described as follows: In vivo antitumor activity administered iv, at a concentration of 20 mg/kg/day per mouse was determined against B16 melanoma cell lines on days 5,7,9 in B6D2F1 mice. The experiment is classed as functional.
The test system of experiment [8] is MCF7. The experiment is described as follows: Cytotoxicity against human breast MCF-7 cancer cell lines. It counts as functional, cell-based.
Experiment [9] deals with A549. The experiment is described as follows: Cytotoxicity against human A549 non small cell lung cell lines. It counts as functional, cell-based.
Experiment [10] has as its system MCF7. The experiment is described as follows: Cytotoxicity against adriamycin resistant human breast MCF-7 cancer cell lines. It counts as functional, cell-based.
Experiment [11] relates to A121. As to the kind of experiment: Cytotoxicity against human A121 ovarian cells. It counts as functional, cell-based.
Experiment [12] deals with HT-29. The experiment is described as follows: Cytotoxicity against human colon HT-29 cell lines. It counts as functional, cell-based.

In the case of `CC(=O)O[C@@]12CO[C@@H]1C[C@H](O)[C@@]1(C)C(=O)[C@H](O)C3=C(C)[C@@H](OC(=O)[C@H](O)[C@@H](NC(=O)OC(C)(C)C)c4ccccc4)C[C@@](O)([C@@H](OC(=O)c4ccccc4)[C@H]21)C3(C)C.O.O.O` [DOCETAXEL], the IC50 in experiment [1] is 9.9 nM; in experiment [3] it was 1860 nM. Further, the Ratio in experiment [2] came out at 0.7.
On to `CC(=O)O[C@@]12CO[C@@H]1C[C@H](O)[C@@]1(C)C(=O)[C@H](O)C3=C(C)[C@@H](OC(=O)[C@H](O)[C@H](C=C(C)C)NC(=O)OC(C)(C)C)C[C@@](O)([C@@H](OC(=O)c4ccccc4)C12)C3(C)C` (stereo partly specified), for which the IC50 came to 12.8 nM in [1] and 2360 nM in [3]. Also, the Ratio in experiment [2] is reported as 0.64. In experiment [4], this compound returned a Log cell kill of 2.25. This compound displayed a Median tumor in [5] of 27.54 days. The same compound had a T/C in experiment [6] of 8%.
As to `CC(=O)O[C@@]12CO[C@@H]1C[C@H](O)[C@@]1(C)C(=O)[C@H](O)C3=C(C)[C@@H](OC(=O)[C@H](O)[C@H](CC(C)(C)C)NC(=O)OC(C)(C)C)C[C@@](O)([C@@H](OC(=O)c4ccccc4)C12)C3(C)C` (stereo partly specified), the IC50 is 125 nM in experiment [1] and 6880 nM in experiment [3]. The Ratio in experiment [2] was 1.45.
Regarding `CC(=O)O[C@@]12CO[C@@H]1C[C@H](O)[C@@]1(C)C(=O)[C@H](O)C3=C(C)[C@@H](OC(=O)[C@H](O)[C@H](CC(C)C)NC(=O)OC(C)(C)C)C[C@@](O)([C@@H](OC(=O)c4ccccc4)C12)C3(C)C` (stereo partly specified), the IC50 was 12.2 nM in experiment [1]; 0.55 nM in experiment [8]; 0.7 nM in experiment [9]; 12 nM in experiment [10]; 1590 nM in [3]; 1.9 nM in experiment [11]. Further, 0.63 nM corresponded to half-maximal inhibition in experiment [12] (IC50). The T/C in experiment [7] is recorded as 5%. For the same compound, the Ratio in [2] is given as 0.78. Besides, in experiment [4], the Log cell kill is recorded as 1.97. Further, in [5], the Median tumor is 26.03 days.
In the case of `CC(=O)O[C@H]1C(=O)[C@@]2(C)C([C@H](OC(=O)c3ccccc3)[C@]3(O)C[C@H](OC(=O)[C@H](O)[C@H](C=C(C)C)NC(=O)c4ccccc4)C(C)=C1C3(C)C)[C@]1(OC(C)=O)CO[C@@H]1C[C@@H]2O` (stereo partly specified), the IC50 in [8] worked out at 0.54 nM; in [9], 0.45 nM; in experiment [10], 113 nM; in experiment [11], 1.4 nM; in experiment [12] it was 0.96 nM.
The like results for `C/C=C/[C@H](NC(=O)OC(C)(C)C)[C@@H](O)C(=O)O[C@H]1C[C@@]2(O)[C@@H](OC(=O)c3ccccc3)C3[C@](C)(C(=O)[C@H](OC(C)=O)C(=C1C)C2(C)C)[C@@H](O)C[C@H]1OC[C@@]31OC(C)=O` (stereo partly specified) were, in that order, 0.51 nM, 0.54 nM, 14 nM, 0.9 nM and 0.76 nM.
`CC(=O)O[C@@]12CO[C@@H]1C[C@H](O)[C@@]1(C)C(=O)[C@H](O)C3=C(C)[C@@H](OC(=O)[C@H](O)[C@H](/C=C/c4ccccc4)NC(=O)OC(C)(C)C)C[C@@](O)([C@@H](OC(=O)c4ccccc4)C12)C3(C)C` (stereo partly specified): the values for the IC50 in experiment [1] and in experiment [3] were 264 nM and 7490 nM, respectively. Also, the Ratio in experiment [2] was 1.45.
In the case of `CC(=O)O[C@H]1C(=O)[C@@]2(C)C([C@H](OC(=O)c3ccccc3)[C@]3(O)C[C@H](OC(=O)[C@H](O)[C@H](CC(C)C)NC(=O)OC(C)(C)C)C(C)=C1C3(C)C)[C@]1(OC(C)=O)CO[C@@H]1C[C@@H]2O` (stereo partly specified), the IC50 in experiment [8] was 4 nM; in [9], 0.98 nM; in experiment [10], 36 nM; in experiment [11] it was 3.8 nM; in [12] it was 3.2 nM.
